This is an account of results in publication doi:10.1101/2025.02.12.637899v1 (biorxiv, 2025).

The target of test [1] is T1, hP2X7R (full-length wild-type human P2X7 receptor) (Homo sapiens, UniProt Q99572).
T1 construct: gene P2RX7; full-length wild-type homotrimer; structures: C-terminal GFP, 3C site and His tag, digested with HRV 3C, from HEK293 / HEK293 GNTI- cells; BLI: biotinylated receptor; TEVC: untagged in Xenopus oocytes; calcium influx: 1321N1 cells; ethidium uptake: HEK293 cells
T1 sequence (Q99572 1-595): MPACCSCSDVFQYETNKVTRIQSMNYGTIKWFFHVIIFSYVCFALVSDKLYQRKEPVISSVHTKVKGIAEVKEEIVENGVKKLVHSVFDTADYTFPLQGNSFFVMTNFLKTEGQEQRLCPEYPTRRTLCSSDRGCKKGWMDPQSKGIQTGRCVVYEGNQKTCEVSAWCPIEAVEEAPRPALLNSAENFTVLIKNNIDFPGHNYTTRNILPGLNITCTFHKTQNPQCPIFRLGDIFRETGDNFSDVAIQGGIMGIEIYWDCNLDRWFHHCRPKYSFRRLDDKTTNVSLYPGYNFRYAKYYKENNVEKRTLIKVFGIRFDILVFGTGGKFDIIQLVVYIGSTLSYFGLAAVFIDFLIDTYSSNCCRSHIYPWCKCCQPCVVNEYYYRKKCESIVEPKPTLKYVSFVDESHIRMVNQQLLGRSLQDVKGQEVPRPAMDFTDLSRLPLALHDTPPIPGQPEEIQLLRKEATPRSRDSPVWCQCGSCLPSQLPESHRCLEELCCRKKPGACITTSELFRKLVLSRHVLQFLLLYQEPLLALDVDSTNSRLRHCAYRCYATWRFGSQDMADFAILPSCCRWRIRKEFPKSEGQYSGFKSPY
As to the kind of experiment: ethidium bromide accumulation, HEK293 cells expressing hP2X7R. The format is cell-based. The text has this:
ethidium bromide accumulation, HEK293 cells expressing hP2X7R on hP2X7R (full-length wild-type human P2X7 receptor)

Test [2] deals with T2, hP2X2R (human P2X2 receptor) (Homo sapiens, UniProt Q9UBL9).
T2 construct: gene P2RX2; stably expressed in 1321N1 astrocytoma cells by retroviral system
T2 sequence (Q9UBL9 1-471): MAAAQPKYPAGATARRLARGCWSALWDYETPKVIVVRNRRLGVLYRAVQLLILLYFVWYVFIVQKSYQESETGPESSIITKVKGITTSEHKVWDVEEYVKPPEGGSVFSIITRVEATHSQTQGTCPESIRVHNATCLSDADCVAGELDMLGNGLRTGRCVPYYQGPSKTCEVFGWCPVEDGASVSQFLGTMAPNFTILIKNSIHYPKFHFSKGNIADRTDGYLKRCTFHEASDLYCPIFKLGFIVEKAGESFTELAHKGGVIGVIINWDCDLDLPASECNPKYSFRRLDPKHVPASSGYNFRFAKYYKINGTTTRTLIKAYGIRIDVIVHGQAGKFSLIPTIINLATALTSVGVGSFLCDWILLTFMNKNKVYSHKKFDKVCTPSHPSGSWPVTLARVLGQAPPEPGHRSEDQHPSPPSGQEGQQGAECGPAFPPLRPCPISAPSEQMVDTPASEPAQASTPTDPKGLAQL
As to the kind of experiment: calcium influx (Fluo-4), […]1 cells. It is filed as cell-based.

The target in test [3] is T3, mP2X7R (full-length wild-type mouse P2X7 receptor) (Mus musculus, UniProt Q9Z1M0).
T3 construct: gene P2rx7; full-length wild-type homotrimer; untagged in Xenopus oocytes for TEVC
T3 sequence (Q9Z1M0 1-595): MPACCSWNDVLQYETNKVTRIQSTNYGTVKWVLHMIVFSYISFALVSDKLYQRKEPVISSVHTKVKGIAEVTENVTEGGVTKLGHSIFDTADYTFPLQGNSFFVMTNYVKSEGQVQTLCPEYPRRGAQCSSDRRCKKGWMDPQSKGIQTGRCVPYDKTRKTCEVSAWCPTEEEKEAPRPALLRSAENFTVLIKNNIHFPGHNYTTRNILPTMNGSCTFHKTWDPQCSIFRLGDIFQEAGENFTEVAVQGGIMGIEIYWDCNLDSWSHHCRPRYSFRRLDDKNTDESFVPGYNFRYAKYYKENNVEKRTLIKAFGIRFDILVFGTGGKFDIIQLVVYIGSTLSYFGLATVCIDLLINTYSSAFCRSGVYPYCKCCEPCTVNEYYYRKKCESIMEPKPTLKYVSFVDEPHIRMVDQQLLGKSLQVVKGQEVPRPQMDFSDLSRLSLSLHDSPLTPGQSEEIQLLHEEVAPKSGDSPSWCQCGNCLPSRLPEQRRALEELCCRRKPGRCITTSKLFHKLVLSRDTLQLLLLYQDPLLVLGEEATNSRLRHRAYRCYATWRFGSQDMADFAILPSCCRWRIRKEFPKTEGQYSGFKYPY
The experiment in a line: calcium influx (Fluo-4), […]1 cells. It is filed as cell-based.

Test [4] concerns the target T1, hP2X7R (full-length wild-type human P2X7 receptor). As to the kind of experiment: calcium influx (Fluo-4), […]1 cells. The format is cell-based. Particulars: agonist BzATP at EC80; allosteric antagonist, classical allosteric site; pH 7.4.
Test [5] concerns the target T4, hP2X4R (human P2X4 receptor) (Homo sapiens, UniProt Q99571).
T4 construct: gene P2RX4; stably expressed in 1321N1 astrocytoma cells by retroviral system
T4 sequence (Q99571 1-388): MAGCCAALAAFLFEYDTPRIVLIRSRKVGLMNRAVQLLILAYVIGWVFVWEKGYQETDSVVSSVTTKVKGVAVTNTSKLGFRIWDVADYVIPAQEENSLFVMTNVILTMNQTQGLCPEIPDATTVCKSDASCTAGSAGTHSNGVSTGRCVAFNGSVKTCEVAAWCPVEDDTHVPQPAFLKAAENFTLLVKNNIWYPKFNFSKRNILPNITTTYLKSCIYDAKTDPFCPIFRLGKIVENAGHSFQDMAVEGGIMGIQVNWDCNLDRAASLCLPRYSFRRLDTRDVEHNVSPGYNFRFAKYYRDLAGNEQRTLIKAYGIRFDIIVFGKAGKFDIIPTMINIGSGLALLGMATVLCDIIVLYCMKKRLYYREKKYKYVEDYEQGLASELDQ
The experiment in a line: calcium influx (Fluo-4), […]1 cells. It is filed as cell-based.

In test [6] the target is T5, hP2X3R (human P2X3 receptor, S15V mutant) (Homo sapiens, UniProt P56373, S15V).
T5 construct: gene P2RX3; S15V mutant to prevent fast desensitization; stably expressed in 1321N1 astrocytoma cells by retroviral system
T5 sequence (P56373 1-397 S15V): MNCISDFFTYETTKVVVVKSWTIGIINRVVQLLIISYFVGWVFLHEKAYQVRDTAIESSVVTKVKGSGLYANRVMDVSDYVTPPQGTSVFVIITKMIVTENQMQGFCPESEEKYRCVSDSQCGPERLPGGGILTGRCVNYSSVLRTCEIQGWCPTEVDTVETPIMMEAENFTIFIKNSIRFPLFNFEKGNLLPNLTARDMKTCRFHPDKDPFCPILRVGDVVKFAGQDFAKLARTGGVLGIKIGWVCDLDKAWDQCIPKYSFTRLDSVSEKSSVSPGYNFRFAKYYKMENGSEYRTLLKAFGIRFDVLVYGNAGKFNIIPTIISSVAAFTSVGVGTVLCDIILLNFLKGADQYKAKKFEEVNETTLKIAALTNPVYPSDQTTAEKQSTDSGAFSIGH
The experiment in a line: calcium influx (Calcium […]), […]1 cells. The format is cell-based.

In test [7] the target is T6, rP2X7R (full-length wild-type rat P2X7 receptor) (Rattus norvegicus, UniProt Q64663).
T6 construct: gene P2rx7; full-length wild-type homotrimer; untagged in Xenopus oocytes for TEVC
T6 sequence (Q64663 1-595): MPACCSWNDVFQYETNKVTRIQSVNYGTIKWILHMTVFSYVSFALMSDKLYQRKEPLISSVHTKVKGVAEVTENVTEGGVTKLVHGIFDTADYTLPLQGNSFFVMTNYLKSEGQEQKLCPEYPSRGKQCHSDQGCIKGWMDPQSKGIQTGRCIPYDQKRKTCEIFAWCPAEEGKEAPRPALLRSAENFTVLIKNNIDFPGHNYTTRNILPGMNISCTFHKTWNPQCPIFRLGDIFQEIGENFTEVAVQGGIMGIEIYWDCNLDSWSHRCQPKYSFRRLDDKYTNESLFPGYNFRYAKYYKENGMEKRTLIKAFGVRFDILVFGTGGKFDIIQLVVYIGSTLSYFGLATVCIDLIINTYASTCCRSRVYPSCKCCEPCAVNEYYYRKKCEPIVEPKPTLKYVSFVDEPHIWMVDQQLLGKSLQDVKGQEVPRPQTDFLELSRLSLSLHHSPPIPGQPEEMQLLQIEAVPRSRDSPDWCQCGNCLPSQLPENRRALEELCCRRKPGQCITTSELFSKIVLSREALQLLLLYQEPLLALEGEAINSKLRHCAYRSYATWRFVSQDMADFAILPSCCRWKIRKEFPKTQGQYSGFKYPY
As to the kind of experiment: calcium influx (Fluo-4), […]1 cells. The format is cell-based.

The target of test [8] is T6, rP2X7R (full-length wild-type rat P2X7 receptor). The experiment in a line: two-electrode voltage clamp, Xenopus oocytes. The format is cell-based. On the technique in general: Two-electrode voltage clamp is typically applied to oocytes expressing channels or transporters.
The target of test [9] is T3, mP2X7R (full-length wild-type mouse P2X7 receptor). The experiment in a line: two-electrode voltage clamp, Xenopus oocytes. The format is cell-based.
The target of test [10] is T1, hP2X7R (full-length wild-type human P2X7 receptor). As to the kind of experiment: bio-layer interferometry, kinetic […] fit. It is filed as binding.
For test [11] the target is unchanged. The experiment in a line: two-electrode voltage clamp, Xenopus oocytes. The format is cell-based.

SMILES strings stand for the structures. Where two headings read alike, the source gives them in different places.

`CC12CC3(C)CC(C)(C1)CC(C(=O)NNc1ccccc1Cl)(C2)C3` [UB-ALT-P37]: the IC50 (usually the concentration that gives 50% inhibition) in test [1] is over 1000 nM.
In test [1], `CC12CC3CC(C)(C1)CC(C(=O)NNc1ccccc1Cl)(C3)C2` [UB-ALT-P36] yielded an IC50 of 477 ± 170 nM.
In turn, `O=C(NNc1ccccc1Cl)C12C3C4C5C3C1C5C42` (stereo not drawn) [UB-ALT-P38] came in with an IC50 in test [1] of 430 ± 64 nM.
For `O=C(NNc1ccccc1Cl)C12CC3CC(CC(C3)C1)C2` [UB-ALT-P30], the inhibition (usually the percentage by which the read-out fell short of the control) at 10 µM came out at 29 ± 7% in [2], 44 ± 14% in test [5] and 86 ± 9% in test [6]. Besides, the figures for the IC50 in [3], in test [4] and in test [7] were 150 ± 27 nM, 18 ± 8.3 nM and 120 ± 50 nM, respectively.
For the molecule `Nc1ncnc2c1ncn2[C@@H]1O[C@H](COP(=O)(O)OP(=O)(O)OP(=O)(O)O)[C@@H](O)[C@H]1O` [ATP], the EC50 – broadly, the concentration at which the effect is half-maximal – worked out at 34000 ± 8400 nM in [8], 70000 ± 17000 nM in test [9] and 89000 ± 8300 nM in test [11]. For the same molecule, in test [10], the Kd (as a rule, the free concentration of one partner at which half of the binding sites on the other are occupied at equilibrium, for simple one-to-one binding) came out at 650 ± 120 nM.
In the case of `CC12CC3CC1(C)C1(C)CC3(C(=O)NNc3ccccc3Cl)CC21C` [UB-MBX-46], the IC50 in test [3] (agonist BzATP at EC80, pH 7.4) worked out at 4.52 ± 0.72 nM; in test [7] (agonist BzATP at EC80, pH 7.4) it was 40.6 ± 10.4 nM.
